From patent publication US6017934A, “Thrombin inhibitors” (Merck & Co., Inc., priority 1998, dated 2000)
Residues, ends and D or L forms follow the SMILES beside them.

Tests used:
Format in all cases: biochemical
human a-thrombin [1] = molecular target: T1, human a-thrombin (Homo sapiens, UniProt P00734); test: In vitro thrombin inhibition (Ki); conditions: 25° C., 0.05 M TRIS pH 7.4, 0.15 M NaCl, 0.1% PEG; read-out: trombin Ki
Experimental: (§1) Assays of human a-thrombin and human trypsin were performed at 25° C. in 0.05 M TRIS buffer pH 7.4, 0.15 M NaCl, 0.1% PEG. Trypsin assays also contained 1 mM CaCl2.
(§2) Concentrations of stock solutions of Z-GPR-afc were determined from measurements of absorbance at 380 nm of the 7-amino-4-trifluoromethyl coumarin produced upon complete hydrolysis of an aliquot of the stock solution by thrombin.
Times required to achieve equilibration between enzyme and inhibitor were determined in control experiments. Initial velocities of product formation in the absence (Vo) or presence of inhibitor (Vi) were measured. Assuming competitive inhibition, and that unity is negligible compared Km /[S], […] (where [S], [I], and e respectively represent the total concentrations, of substrate, inhibitor and enzyme), the equilibrium constant (Ki) for dissociation of the inhibitor from the enzyme can be obtained from the dependence of Vo /Vi on [I] shown in equation 1.

human a-thrombin [2] = molecular target: T1, human a-thrombin; test: Thrombin catalyzed hydrolysis of fluorogenic substrate; conditions: 500 nm (excitation 400 nm)
Experimental: as §1, §2

human trypsin = test: Rate of hydrolysis of p-nitroanilide substrate by trypsin; conditions: 405 nm, 1 mM CaCl2
Experimental: as §1

| Ki (human a-thrombin [1]) [nM] | Structure (SMILES) | also measured |
| --- | --- | --- |
| < 10 | Cc1cc(Sc2ccccc2)c(N)c(=O)n1CC(=O)NCc1cc(Cl)ccc1OCC(=O)NC1CC1 |  |
| > 10 | Cc1nc(N)ccc1CNC(=O)Cn1c(C)cc(Sc2ccccc2)c(NS(C)(=O)=O)c1=O |  |
|  | N=C(N)NCCC[C@H](NC(=O)[C@@H]1CCCN1C(=O)CNC(=O)OCc1ccccc1)C(=O)Nc1ccc2c(C(F)(F)F)cc(=O)oc2c1 [Z-GPR-afc, Cbz-Gly-Pro-Arg-7-amino-4-trifluoromethylcoumarin] (HELM PEPTIDE1{[O=C(OCc1ccccc1)[*:2]].G.P.R.[O=c1cc(C(F)(F)F)c2ccc(N[*:1])cc2o1]}$$$$V2.0) | Km (human a-thrombin [2]): 27 µM |
|  | CNCC(=O)N1CCC[C@H]1C(=O)N[C@@H](CCCNC(=N)N)C(=O)Nc1ccc([N+](=O)[O-])cc1 [sar-PR-pna, sarcosine-Pro-Arg-p-nitroanilide] (HELM PEPTIDE1{[Sar].P.R.[O=[N+]([O-])c1ccc(N[*:1])cc1]}$$$$V2.0) | Km (human trypsin): 59 µM |
